The values that follow come from patent US9353107B2 (Aurigene Discovery Technologies Limited, priority 2012, dated 2016).

By IC50 is commonly meant the concentration needed to halve the response being measured. The inhibition is how much of the control response was suppressed.

Some results are limits rather than exact numbers.

In this assay the target is T1, recombinant human ALK enzyme (ALK WT) (Homo sapiens, UniProt Q9UM73).
T1 construct: purchased Carna Biosciences 08-518
In words: ALK WT cell free enzymatic assay (TR-FRET). It is filed as biochemical. Conditions: 1 μM ATP; for IC50: 10 point dose response; for inhibition at 0.1 µM: compound at 100 nM; for inhibition at 0.1 µM / inhibition at 1 µM: 30 min pre-incubation; for inhibition at 1 µM: compound at 1 μM. In short, it runs like this: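 Read-out is TR-FRET (665 nm/615 nm ratio) using an Eu-labeled anti-phosphotyrosine antibody. Compound is pre-incubated 30 min with recombinant human ALK, then reacted 30 min with 1 μM ATP and 40 nM Poly GT substrate. Values are percent inhibition at 100 nM and 1 μM, plus IC50 from 10-point variable-slope regression.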

T1 sequence (Q9UM73 1058-1620 limits assumed): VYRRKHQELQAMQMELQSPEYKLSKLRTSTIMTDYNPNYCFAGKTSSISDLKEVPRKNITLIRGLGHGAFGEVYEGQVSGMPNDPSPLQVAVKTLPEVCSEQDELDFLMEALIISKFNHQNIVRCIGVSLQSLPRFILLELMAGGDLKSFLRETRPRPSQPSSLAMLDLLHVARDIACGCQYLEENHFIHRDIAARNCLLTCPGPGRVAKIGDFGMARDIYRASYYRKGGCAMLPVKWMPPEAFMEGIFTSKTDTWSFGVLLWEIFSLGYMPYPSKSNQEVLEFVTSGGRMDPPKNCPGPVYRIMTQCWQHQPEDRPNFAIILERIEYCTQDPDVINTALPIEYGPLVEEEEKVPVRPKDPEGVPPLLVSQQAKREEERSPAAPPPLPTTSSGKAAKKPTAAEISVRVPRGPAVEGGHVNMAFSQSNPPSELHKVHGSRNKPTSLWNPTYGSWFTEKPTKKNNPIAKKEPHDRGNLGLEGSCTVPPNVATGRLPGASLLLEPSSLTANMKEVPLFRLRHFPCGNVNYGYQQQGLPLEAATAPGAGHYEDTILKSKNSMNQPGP

Take `NC(=O)N1CCN(c2ccc(-c3cnc4[nH]cc(-c5cnn(Cc6cccc(F)c6)c5)c4c3)cc2)CC1` [Example 108, 4-(4-(3-(1-(3-fluorobenzyl)-1H-pyrazol-4-yl)-1H-pyrrolo[2,3-b]pyridin-5-yl)phenyl)piperazine-1-carboxamide]: the IC50 was below 50 nM, the inhibition at 0.1 µM came to 97% and the inhibition at 1 µM was found to be 100%.

As to `CN1CCN(c2ccc(-c3cnc4[nH]cc(-c5cnn(CCc6ccccc6)c5)c4c3)cc2)CC1` [Example 109, 5-(4-(4-methylpiperazin-1-yl)phenyl)-3-(1-phenethyl-1H-pyrazol-4-yl)-1H-pyrrolo[2,3-b]pyridine], the inhibition at 0.1 µM stood at 76% and the inhibition at 1 µM was 100%.

`CS(=O)(=O)Nc1cc(-c2cnc3[nH]cc(-c4cnn(Cc5cccc(F)c5)c4)c3c2)ccc1N1CCN(CC(N)=O)CC1` [Example 110, 2-(4-(4-(3-(1-(3-fluorobenzyl)-1H-pyrazol-4-yl)-1H-pyrrolo[2,3-b]pyridin-5-yl)-2-(methylsulfonamido)phenyl)piperazin-1-yl)acetamide]: the half-inhibitory concentration (IC50) is below 50 nM, the inhibition at 0.1 µM worked out at 94% and the inhibition at 1 µM was 98%.

As to `Fc1cc(F)cc(Cn2ccc(-c3c[nH]c4ncc(-c5ccc(N6CCNCC6)cc5)cc34)n2)c1` [Example 111, 3-(1-(3,5-difluorobenzyl)-1H-pyrazol-3-yl)-5-(4-(piperazin-1-yl)phenyl)-1H-pyrrolo[2,3-b]pyridine], the IC50 was below 50 nM, the inhibition at 0.1 µM stood at 82% and the inhibition at 1 µM was found to be 100%.

Regarding `COc1cc(-c2cnc3[nH]cc(-c4cnn(Cc5cccc(F)c5)c4)c3c2)ccc1N1CCN(C[C@H](C)O)CC1` [Example 112, (S)-1-(4-(4-(3-(1-(3-fluorobenzyl)-1H-pyrazol-4-yl)-1H-pyrrolo[2,3-b]pyridin-5-yl)-2-methoxyphenyl)piperazin-1-yl)propan-2-ol], the inhibition at 0.1 µM is 90% and the inhibition at 1 µM came to 100%.

As for `CS(=O)(=O)Nc1cc(-c2cnc3[nH]cc(-c4ccn(Cc5cc(F)cc(F)c5)n4)c3c2)ccc1N1CCNCC1` [Example 113, N-(5-(3-(1-(3,5-difluorobenzyl)-1H-pyrazol-3-yl)-1H-pyrrolo[2,3-b]pyridin-5-yl)-2-(piperazin-1-yl)phenyl)methanesulfonamide], the 50% inhibitory concentration (IC50) is below 50 nM, the inhibition at 0.1 µM was 90% and the inhibition at 1 µM came to 97%.

As to `C[C@H](O)CN1CCN(c2ccc(-c3cnc4[nH]cc(-c5cnn(Cc6cccc(F)c6)c5)c4c3)cc2F)CC1` [Example 114, (S)-1-(4-(2-fluoro-4-(3-(1-(3-fluorobenzyl)-1H-pyrazol-4-yl)-1H-pyrrolo[2,3-b]pyridin-5-yl)phenyl)piperazin-1-yl)propan-2-ol], the inhibition at 0.1 µM stood at 92% and the inhibition at 1 µM came to 99%.

For the compound `Cc1cc(-c2cnc3[nH]cc(-c4cnn(Cc5cccc(F)c5)c4)c3c2)ccc1N1CCN(C[C@H](C)O)CC1` [Example 115, (S)-1-(4-(4-(3-(1-(3-fluorobenzyl)-1H-pyrazol-4-yl)-1H-pyrrolo[2,3-b]pyridin-5-yl)-2-methylphenyl)piperazin-1-yl)propan-2-ol], the inhibition at 0.1 µM is 94% and the inhibition at 1 µM came to 100%.

As for `COc1cc(N2CCN(C[C@H](C)O)CC2)ccc1-c1cnc2[nH]cc(-c3cnn(Cc4cccc(F)c4)c3)c2c1` [Example 116, (S)-1-(4-(4-(3-(1-(3-fluorobenzyl)-1H-pyrazol-4-yl)-1H-pyrrolo[2,3-b]pyridin-5-yl)-3-methoxyphenyl)piperazin-1-yl)propan-2-ol], the half-inhibitory concentration (IC50) lay in the range of 50 to 250 nM, the inhibition at 0.1 µM was found to be 68% and the inhibition at 1 µM turned out to be 97%.

Consider `C[C@H](O)CN1CCN(c2ccc(-c3cnc4[nH]cc(-c5cnn(CCc6ccccc6)c5)c4c3)cc2)CC1` [Example 117, (S)-1-(4-(4-(3-(1-phenethyl-1H-pyrazol-4-yl)-1H-pyrrolo[2,3-b]pyridin-5-yl)phenyl)piperazin-1-yl)propan-2-ol], for which the IC50 was below 50 nM, the inhibition at 0.1 µM was determined as 91% and the inhibition at 1 µM worked out at 95%.

`C[C@H](O)CN1CCN(c2ccc(-c3cnc4[nH]cc(-c5cnn(Cc6ccccc6)c5)c4c3)cc2)CC1` [Example 118, (S)-1-(4-(4-(3-(1-benzyl-1H-pyrazol-4-yl)-1H-pyrrolo[2,3-b]pyridin-5-yl)phenyl)piperazin-1-yl)propan-2-ol]: the IC50 is below 50 nM, the inhibition at 0.1 µM was 94% and the inhibition at 1 µM came to 98%.

Consider `Cc1cccc(Cn2cc(-c3c[nH]c4ncc(-c5ccc(N6CCN(C[C@H](C)O)CC6)cc5)cc34)cn2)c1` [Example 119, (S)-1-(4-(4-(3-(1-(3-methylbenzyl)-1H-pyrazol-4-yl)-1H-pyrrolo[2,3-b]pyridin-5-yl)phenyl)piperazin-1-yl)propan-2-ol], for which the IC50 was below 50 nM, the inhibition at 0.1 µM was 86% and the inhibition at 1 µM was 93%.

As to `C[C@@H](O)CN1CCN(c2ccc(-c3cnc4[nH]cc(-c5cnn(Cc6cccc(F)c6)c5)c4c3)cc2)CC1` [Example 120, (R)-1-(4-(4-(3-(1-(3-fluorobenzyl)-1H-pyrazol-4-yl)-1H-pyrrolo[2,3-b]pyridin-5-yl)phenyl)piperazin-1-yl)propan-2-ol], the half-inhibitory concentration (IC50) was below 50 nM, the inhibition at 0.1 µM amounted to 95% and the inhibition at 1 µM turned out to be 99%.

In the case of `C[C@H](O)CN1CCN(c2ccc(-c3cnc4[nH]cc(-c5cnn(Cc6cccc(F)c6)c5)c4c3)c(F)c2)CC1` [Example 121, (S)-1-(4-(3-fluoro-4-(3-(1-(3-fluorobenzyl)-1H-pyrazol-4-yl)-1H-pyrrolo[2,3-b]pyridin-5-yl)phenyl)piperazin-1-yl)propan-2-ol], the IC50 was below 50 nM, the inhibition at 0.1 µM amounted to 91% and the inhibition at 1 µM was determined as 95%.

In the case of `OC1CCN(c2ccc(-c3cnc4[nH]cc(-c5cnn(Cc6cccc(F)c6)c5)c4c3)cc2)CC1` [Example 122, 1-(4-(3-(1-(3-fluorobenzyl)-1H-pyrazol-4-yl)-1H-pyrrolo[2,3-b]pyridin-5-yl)phenyl)piperidin-4-ol], the IC50 was below 50 nM, the inhibition at 0.1 µM stood at 90% and the inhibition at 1 µM turned out to be 96%.

Take `Cc1nn(Cc2cccc(F)c2)c(C)c1-c1c[nH]c2ncc(-c3ccc(N4CCN(C[C@H](C)O)CC4)cc3)cc12` [Example 123, (2S)-1-(4-(4-(3-(1-(3-fluorobenzyl)-3,5-dimethyl-1H-pyrazol-4-yl)-1H-pyrrolo[2,3-b]pyridin-5-yl)phenyl)piperazin-1-yl)propan-2-ol]: the IC50 was below 50 nM, the inhibition at 0.1 µM turned out to be 92% and the inhibition at 1 µM is 96%.

Turning to `O=C(CC1CC1)N1CCN(c2ccc(-c3cnc4[nH]cc(-c5cnn(Cc6cccc(F)c6)c5)c4c3)cc2)CC1` [Example 124, 2-cyclopropyl-1-(4-(4-(3-(1-(3-fluorobenzyl)-1H-pyrazol-4-yl)-1H-pyrrolo[2,3-b]pyridin-5-yl)phenyl)piperazin-1-yl)ethanone], the concentration for half-maximal inhibition (IC50) is above 250 nM, the inhibition at 0.1 µM is 17% and the inhibition at 1 µM came out at 86%.

`CS(=O)(=O)N1CCN(c2ccc(-c3cnc4[nH]cc(-c5cnn(Cc6cccc(F)c6)c5)c4c3)cc2)CC1` [Example 125, 3-(1-(3-fluorobenzyl)-1H-pyrazol-4-yl)-5-(4-(4-(methylsulfonyl)piperazin-1-yl)phenyl)-1H-pyrrolo[2,3-b]pyridine]: the half-maximal inhibitory concentration (IC50) is below 50 nM, the inhibition at 0.1 µM amounted to 86% and the inhibition at 1 µM was found to be 97%.

As to `OCCN1CCN(c2ccc(-c3cnc4[nH]cc(-c5cnn(Cc6cccc(F)c6)c5)c4c3)cc2)CC1` [Example 126, 2-(4-(4-(3-(1-(3-fluorobenzyl)-1H-pyrazol-4-yl)-1H-pyrrolo[2,3-b]pyridin-5-yl)phenyl)piperazin-1-yl)ethanol], the half-maximal inhibitory concentration (IC50) was below 50 nM, the inhibition at 0.1 µM came to 95% and the inhibition at 1 µM stood at 97%.

In the case of `CN(C)CC(=O)N1CCN(c2ccc(-c3cnc4[nH]cc(-c5cnn(Cc6cccc(F)c6)c5)c4c3)cc2)CC1` [Example 127, 2-(dimethylamino)-1-(4-(4-(3-(1-(3-fluorobenzyl)-1H-pyrazol-4-yl)-1H-pyrrolo[2,3-b]pyridin-5-yl)phenyl)piperazin-1-yl)ethanone], the IC50 was below 50 nM, the inhibition at 0.1 µM amounted to 96% and the inhibition at 1 µM is 97%.

With `O=C(CO)N1CCN(c2ccc(-c3cnc4[nH]cc(-c5cnn(Cc6cccc(F)c6)c5)c4c3)cc2)CC1` [Example 128, 1-(4-(4-(3-(1-(3-fluorobenzyl)-1H-pyrazol-4-yl)-1H-pyrrolo[2,3-b]pyridin-5-yl)phenyl)piperazin-1-yl)-2-hydroxyethanone], the IC50 is below 50 nM, the inhibition at 0.1 µM is 92% and the inhibition at 1 µM is 94%.

For the compound `Cc1c(-c2c[nH]c3ncc(-c4ccc(N5CCN(C[C@H](C)O)CC5)cc4)cc23)cnn1Cc1cccc(F)c1` [Example 129, (S)-1-(4-(4-(3-(1-(3-fluorobenzyl)-5-methyl-1H-pyrazol-4-yl)-1H-pyrrolo[2,3-b]pyridin-5-yl)phenyl)piperazin-1-yl)propan-2-ol], the 50% inhibitory concentration (IC50) was below 50 nM, the inhibition at 0.1 µM came out at 96% and the inhibition at 1 µM turned out to be 99%.

As to `Cc1nn(Cc2cccc(F)c2)cc1-c1c[nH]c2ncc(-c3ccc(N4CCN(C[C@H](C)O)CC4)cc3)cc12` [Example 130, (S)-1-(4-(4-(3-(1-(3-fluorobenzyl)-3-methyl-1H-pyrazol-4-yl)-1H-pyrrolo[2,3-b]pyridin-5-yl)phenyl)piperazin-1-yl)propan-2-ol], the IC50 was below 50 nM, the inhibition at 0.1 µM amounted to 88% and the inhibition at 1 µM stood at 99%.
